Test results reported in patent US20240174690A1, “ANNULATED 2-AMINO-3-CYANO THIOPHENES AND DERIVATIVES FOR THE TREATMENT OF CANCER” (BOEHRINGER INGELHEIM INTERNATIONAL GMBH, priority 2021, published 2024).

What was measured:
[1] = system: NCI-H2122 cells; assay: NCI-H2122 CTG proliferation assay (120 h) (NSCLC, G12C); format: cell-based; conditions: Homo sapiens
In short: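 NCI-H2122 cells (KRAS G12C NSCLC), 200 per well in RPMI with 10% FCS, were dosed with compound on day 1 and incubated 120 h at 37 °C. Viability was read by CellTiter-Glo luminescence as percent of DMSO control, and IC50 was fitted with a four-parameter model.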

[2] = biological target: CYP3A4 (Homo sapiens (Human), UniProt P08684); assay: Mechanism based inhibition of CYP3A4 assay (MBI 3A4); format: in vitro ADME; conditions: hydroxy-midazolam formation after 30 min vs 0 min preincubation, 25 uM, human liver microsomes
In short: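 Human CYP3A4 activity after 30 min vs 0 min preincubation with test compound; incubate then diluted 1:10 and midazolam added for a 15 min main incubation. Quenched with acetonitrile; hydroxy-midazolam quantified by LC/MS-MS and expressed as % of the 0 min preincubation formation.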

CYP3A4, sequence (P08684 whole entry): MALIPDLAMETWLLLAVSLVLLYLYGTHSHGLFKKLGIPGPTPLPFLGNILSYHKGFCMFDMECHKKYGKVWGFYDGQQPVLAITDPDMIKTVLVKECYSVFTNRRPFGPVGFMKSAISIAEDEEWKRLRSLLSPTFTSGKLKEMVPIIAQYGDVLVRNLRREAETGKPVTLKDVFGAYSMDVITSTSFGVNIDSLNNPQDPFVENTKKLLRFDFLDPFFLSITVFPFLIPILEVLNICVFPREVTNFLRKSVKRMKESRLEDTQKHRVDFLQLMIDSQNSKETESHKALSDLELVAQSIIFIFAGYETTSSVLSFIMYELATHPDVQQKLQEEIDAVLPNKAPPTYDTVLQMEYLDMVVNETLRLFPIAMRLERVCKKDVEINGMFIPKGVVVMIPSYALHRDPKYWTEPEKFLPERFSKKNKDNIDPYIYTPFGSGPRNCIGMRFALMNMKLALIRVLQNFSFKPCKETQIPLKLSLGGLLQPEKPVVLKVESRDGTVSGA

Compound | IC50 [1] [nM] | MBI 3A4 [2] [%]
C[C@H](Oc1cc(-n2cnc(C(=O)N(C)C)c2)nc(-c2noc3c2CCC[C@@]32CCCc3sc(N)c(C#N)c32)n1)[C@@H]1CCCN1C [II-126] | 2690 | 56
C[C@H](Oc1cc(-c2ccn([C@H]3CCOC3)n2)nc(-c2noc3c2CCC[C@@]32CCCc3sc(N)c(C#N)c32)n1)[C@@H]1CCCN1C [II-127] | 189 | 74
C[C@H](Oc1cc(-c2ccn(Cc3ncco3)n2)nc(-c2noc3c2CCC[C@@]32CCCc3sc(N)c(C#N)c32)n1)[C@@H]1CCCN1C [II-128] | 361 | 60
C[C@H](Oc1cc(-c2ccn(C[C@H]3CCOC3)n2)nc(-c2noc3c2CCC[C@@]32CCCc3sc(N)c(C#N)c32)n1)[C@@H]1CCCN1C [II-129] | 198 | 74
C[C@H](Oc1cc(-n2nccc2-c2ccncc2)nc(-c2noc3c2CCC[C@@]32CCCc3sc(N)c(C#N)c32)n1)[C@@H]1CCCN1C [II-131] | 672 | –
C[C@H](Oc1cc(-n2cc(C(=O)N(C)C)nn2)nc(-c2noc3c2CCC[C@@]32CCCc3sc(N)c(C#N)c32)n1)[C@@H]1CCCN1C [II-132] | 188 | 70
C[C@H](O)Cn1ncc(-c2cc(O[C@@H](C)[C@@H]3CCCN3C)nc(-c3noc4c3CCC[C@@]43CCCc4sc(N)c(C#N)c43)n2)n1 [II-134] | 4120 | 76
C[C@H]1CNCCCN1c1cc(-c2ccn(C)n2)nc(-c2noc3c2CCC[C@@]32CCCc3sc(N)c(C#N)c32)n1 [II-140] | 8240 | –
C[C@H]1CNCCCN1c1cc(-n2ccnc2)nc(-c2noc3c2CCC[C@@]32CCCc3sc(N)c(C#N)c32)n1 [II-142] | 10500 | –
C[C@H](Oc1cc(N2CC3COCC(C2)N3)nc(-c2noc3c2CCC[C@@]32CCCc3sc(N)c(C#N)c32)n1)[C@@H]1CCCN1C [II-160] | 3190 | –
C[C@H](Oc1cc([C@H]2CCNC2)nc(-c2noc3c2CCC[C@@]32CCCc3sc(N)c(C#N)c32)n1)[C@@H]1CCCN1C [II-163] | 4500 | –
CC(C)N1CCCN(c2cc(-c3ccn(C)n3)nc(-c3noc4c3CCC[C@@]43CCCc4sc(N)c(C#N)c43)n2)[C@@H](C)C1 [II-170] | 942 | 70

More lines, now with the values ahead:

IC50 [1] [nM] | MBI 3A4 [2] [%] | Compound
2870 | 83 | C[C@H](Oc1cc(-n2cncc3ccnc2-3)nc(-c2onc3c2CCC[C@@]32CCCc3sc(N)c(C#N)c32)n1)[C@@H]1CCCN1C [I-14]
4230 | – | CO[C@@H]1C[C@@H]([C@H](C)Oc2cc(-c3cnn(C)n3)nc(-c3onc4c3CCC[C@@]43CCCc4sc(N)c(C#N)c43)n2)N(C)C1 [I-17]
1760 | 58 | C[C@H](Oc1cc(-n2cncn2)nc(-c2onc3c2CCC[C@@]32CCCc3sc(N)c(C#N)c32)n1)[C@@H]1CCCN1C [I-18]
2710 | – | C[C@H](Oc1cc(N2Cc3cnn(C)c3C2)nc(-c2onc3c2CCC[C@@]32CCCc3sc(N)c(C#N)c32)n1)[C@@H]1CCCN1C [I-19]
768 | 68 | C[C@H](Oc1cc(-n2cc(-c3cncs3)nn2)nc(-c2noc3c2CCC[C@@]32CCCc3sc(N)c(C#N)c32)n1)[C@@H]1CCCN1C [II-125]
4850 | – | C[C@@H]1CN(c2cc(O[C@@H](C)[C@@H]3CCCN3C)nc(-c3noc4c3CCC[C@@]43CCCc4sc(N)c(C#N)c43)n2)CCN1 [II-161]
1250 | – | CC(C)[C@@H]1CN(c2cc(O[C@@H](C)[C@@H]3CCCN3C)nc(-c3noc4c3CCC[C@@]43CCCc4sc(N)c(C#N)c43)n2)CCN1 [II-166]
9790 | – | C[C@H](Oc1cc(N2C[C@@H]3[C@@H](N)[C@@H]3C2)nc(-c2noc3c2CCC[C@@]32CCCc3sc(N)c(C#N)c32)n1)[C@@H]1CCCN1C [II-167]
948 | – | CC(=O)N1CCN(c2cc(O[C@@H](C)[C@@H]3CCCN3C)nc(-c3noc4c3CCC[C@@]43CCCc4sc(N)c(C#N)c43)n2)CC12CC2 [II-178]
